In US8906904B2, “Alkoxy pyrazoles as soluble guanylate cyclase activators” (Boehringer Ingelheim International GmbH, priority 2012, dated 2014):

Key:
[1] = target: T1, human soluble guanylate cyclase alpha 1 and beta 1 subunits (sGC) (Homo sapiens, UniProt Q02108+Q02153); assay: sGC cellular activator assay (cGMP, HTRF); assay type: cell-based; conditions: CHO cells stably expressing human sGC alpha 1/beta 1, preincubated with 40 microM ODQ; cGMP readout; assay run with and without 50% human serum, Table 2 does not say which
T1 construct: expressed in transfected cells; host or cells: Chinese hamster ovary (CHO) cells, stably transfected
T1 sequence (Q02108 1-690): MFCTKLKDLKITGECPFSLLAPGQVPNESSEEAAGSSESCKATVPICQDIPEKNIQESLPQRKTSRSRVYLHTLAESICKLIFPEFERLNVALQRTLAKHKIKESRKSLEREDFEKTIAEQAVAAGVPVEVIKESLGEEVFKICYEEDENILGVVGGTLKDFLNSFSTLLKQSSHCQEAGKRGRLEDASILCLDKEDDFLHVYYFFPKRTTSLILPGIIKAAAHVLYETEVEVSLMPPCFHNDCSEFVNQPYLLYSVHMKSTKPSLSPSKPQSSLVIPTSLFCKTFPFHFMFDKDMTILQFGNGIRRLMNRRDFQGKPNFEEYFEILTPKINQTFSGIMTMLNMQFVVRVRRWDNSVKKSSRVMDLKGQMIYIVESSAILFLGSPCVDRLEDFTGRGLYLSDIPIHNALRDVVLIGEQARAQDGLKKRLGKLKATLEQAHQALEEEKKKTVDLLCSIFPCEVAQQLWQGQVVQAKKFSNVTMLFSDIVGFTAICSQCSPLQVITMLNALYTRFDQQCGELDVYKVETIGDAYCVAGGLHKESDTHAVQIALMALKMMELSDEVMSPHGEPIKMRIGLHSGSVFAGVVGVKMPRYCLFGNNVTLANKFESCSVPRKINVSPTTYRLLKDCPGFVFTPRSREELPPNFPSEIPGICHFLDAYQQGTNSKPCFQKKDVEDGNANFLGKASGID
T1 sequence (Q02153 1-619): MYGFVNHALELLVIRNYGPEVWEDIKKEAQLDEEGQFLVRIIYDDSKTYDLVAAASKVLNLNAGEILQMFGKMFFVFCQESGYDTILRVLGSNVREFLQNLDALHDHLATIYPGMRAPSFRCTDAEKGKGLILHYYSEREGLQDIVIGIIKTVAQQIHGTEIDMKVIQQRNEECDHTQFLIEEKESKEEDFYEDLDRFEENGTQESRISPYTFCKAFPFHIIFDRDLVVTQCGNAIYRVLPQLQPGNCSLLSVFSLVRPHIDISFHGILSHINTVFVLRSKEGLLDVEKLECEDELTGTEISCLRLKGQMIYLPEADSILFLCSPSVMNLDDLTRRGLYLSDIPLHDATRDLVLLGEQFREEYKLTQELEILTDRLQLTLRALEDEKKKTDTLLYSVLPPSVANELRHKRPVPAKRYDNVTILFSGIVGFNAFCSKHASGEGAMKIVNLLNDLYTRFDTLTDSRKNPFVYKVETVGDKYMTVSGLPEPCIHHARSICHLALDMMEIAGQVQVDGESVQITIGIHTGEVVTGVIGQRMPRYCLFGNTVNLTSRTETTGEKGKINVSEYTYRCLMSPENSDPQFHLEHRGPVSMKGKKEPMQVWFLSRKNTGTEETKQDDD
Outline: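 First, CHO-sGC (human α1β1) cells get 1 h ODQ at 40 microM with IBMX and 0.1% BSA. Finally, cGMP is quantified by HTRF and EC50 computed.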

[2] = human liver microsome (HLM) metabolic stability assay; assay type: in vitro ADME; conditions: human liver microsomes; % hepatic blood flow calculated from t1/2
Outline: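 Compounds at 1 uM incubated with human liver microsomes plus NADPH at 37° C., sampled at 0, 5, 15, 30 and 60 min into cold acetonitrile and quantified by LC/MS/MS. t½ from the slope of ln % remaining vs time; CLint, CLh and % Qh derived from it (n=1).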

EC50 [1] [nM]	HLM (% Qh) [2] [% Qh]	SMILES
56	<24	CCOc1c(C(=O)O)cnn1-c1cccc(-c2cccc(C)c2OCc2ccc3c(c2)CCN(C2CC(C)OC(C)C2)C3)n1 (stereo not shown) [Compound 65]
45	<24	CCOc1c(C(=O)O)cnn1-c1cccc(-c2cccc(C)c2OCc2ccc3c(c2)CCN(CC2CCOC(C)(C)C2)C3)n1 (stereo not shown) [Compound 80]
150	76	COc1c(C(=O)O)cnn1-c1cccc(-c2cccc(C)c2OCc2ccc3c(c2)C(C)(C)CN(C2CCOCC2)C3)n1 [Compound 89]
62	<24	Cc1cccc(-c2cccc(-n3ncc(C(=O)O)c3OC(C)C)n2)c1OCc1ccc2c(c1)CCN(CC1(C)COC1)C2 [Compound 40]
27	<24	Cc1cccc(-c2cccc(-n3ncc(C(=O)O)c3OC(C)C)n2)c1OCc1ccc2c(c1)CCN(C1CCOC1)C2 (stereo not shown) [Compound 41]
170	<24	COc1c(C(=O)O)cnn1-c1cccc(-c2cc(F)cc(F)c2OCc2ccc3c(c2)CCN(C2COC2)C3)n1 [Compound 52]
61	<24	CCOc1c(C(=O)O)cnn1-c1cccc(-c2cccc(C)c2OCc2ccc3c(c2)CCN(CC2CCOCC2)C3)n1 [Compound 69]
990	40	CCOc1c(C(=O)O)cnn1-c1cccc(-c2cccc(Cl)c2OCc2ccc3c(c2)CCNC3)n1 [Compound 50]
48	<24	CCOc1c(C(=O)O)cnn1-c1cccc(-c2cccc(C)c2OCc2ccc3c(c2)CCN(C2CCOC(C)C2)C3)n1 (stereo not shown) [Compound 78]
39	<24	Cc1cccc(-c2cccc(-n3ncc(C(=O)O)c3OC(C)C)n2)c1OCc1ccc2c(c1)CCN(C1CCOCC1)C2 [Compound 1, 5-isopropoxy-1-(6-{3-methyl-2-[2-(tetrahydro-pyran-4-yl)-1,2,3,4-tetrahydro-isoquinolin-6-ylmethoxy]-phenyl}-pyridin-2-yl)-1H-pyrazole-4-carboxylic acid]
20	<24	COc1c(C(=O)O)cnn1-c1cccc(-c2cccc(C)c2OCc2ccc3c(c2)CCN(CC2COCCO2)C3)n1 (stereo not shown) [Compound 92]
45	<24	CCOc1c(C(=O)O)cnn1-c1cccc(-c2cccc(C)c2OCc2ccc3c(c2)CCN(C2CCOCC2F)C3)n1 (stereo not shown) [Compound 94]
31	<24	CCOc1c(C(=O)O)cnn1-c1cccc(-c2cccc(C)c2OCc2ccc3c(c2)CCN(C2CCOCC2)C3)n1 [Compound 77]
110	<24	CCOc1c(C(=O)O)cnn1-c1cccc(-c2cccc(Cl)c2OCc2ccc3c(c2)CCN(C2CCOCC2)C3)n1 [Compound 54]
9	<24	COc1c(C(=O)O)cnn1-c1cccc(-c2cccc(C(F)(F)F)c2OCc2ccc3c(c2C)CCN(C2CCOCC2)C3)n1 [Compound 84]
250	36	COc1c(C(=O)O)cnn1-c1cccc(-c2cccc(C)c2OCc2ccc3c(c2)CCN(C2CC(C)(C)OC(C)(C)C2)C3)n1 [Compound 73]
24	<24	Cc1cccc(-c2cccc(-n3ncc(C(=O)O)c3OC(C)C)n2)c1OCc1ccc2c(c1)CCN(C1CCCOC1)C2 (stereo not shown) [Compound 42]
69	<24	COc1c(C(=O)O)cnn1-c1cccc(-c2cccc(C)c2OCc2ccc3c(c2)CCN([C@H]2CC[C@H](OC)CC2)C3)n1 [Compound 90]
10	<24	COc1c(C(=O)O)cnn1-c1cccc(-c2cccc(C)c2OCc2ccc3c(c2C)CCN(CC(C)(C)C)C3)n1 [Compound 30]

EC50 [1] [nM]	HLM (% Qh) [2] [% Qh]	SMILES
55	<24	COc1c(C(=O)O)cnn1-c1cccc(-c2cccc(C)c2OCc2ccc3c(c2)CCN(C2CC4CCC(C2)O4)C3)n1 (stereo not shown) [Compound 87]
120	<24	Cc1cccc(-c2cccc(-n3ncc(C(=O)O)c3OC(C)C)n2)c1OCc1ccc2c(c1)CCN(C(C)C)C2 [Compound 37]
11	<24	Cc1cccc(-c2cccc(-n3ncc(C(=O)O)c3OC(C)C)n2)c1OCc1ccc2c(c1)CCN(C1CCC(F)(F)CC1)C2 [Compound 2]
29	<24	COc1c(C(=O)O)cnn1-c1cccc(-c2cccc(C)c2OCc2ccc3c(c2)CCN(C2CCOCC2)C3)n1 [Compound 3]
26	<24	Cc1cccc(-c2cccc(-n3ncc(C(=O)O)c3OC(C)C)n2)c1OCc1ccc2c(c1C)CCN(C1COC1)C2 [Compound 45]
38	<24	Cc1cccc(-c2cccc(-n3ncc(C(=O)O)c3OC(C)C)n2)c1OCc1ccc2c(c1C)CCN(CC1(C)COC1)C2 [Compound 46]
110	<24	CCOc1c(C(=O)O)cnn1-c1cccc(-c2cccc(C)c2OCc2ccc3c(c2)CCN(C2CCOC(C)(C)C2)C3)n1 (stereo not shown) [Compound 66]
71	<24	CCOc1c(C(=O)O)cnn1-c1cccc(-c2cccc(C)c2OCc2ccc3c(c2)CCN(C2CCOCC2C)C3)n1 (stereo not shown) [Compound 64]
8	<24	COc1c(C(=O)O)cnn1-c1cccc(-c2cccc(C)c2OCc2ccc3c(c2)CN(CC2CC(F)(F)C2)C3)n1 [Compound 82]
820	<24	CCOc1c(C(=O)O)cnn1-c1cccc(-c2cccc(Cl)c2OCc2ccc3c(c2)CCN(C(C)CO)C3)n1 (stereo not shown) [Compound 56]
72	<24	CCOc1c(C(=O)O)cnn1-c1cccc(-c2cccc(Cl)c2OCc2ccc3c(c2)CCN(C2COC2)C3)n1 [Compound 51]
44	<24	COCC(C)N1CCc2c(ccc(COc3c(C)cccc3-c3cccc(-n4ncc(C(=O)O)c4OC(C)C)n3)c2C)C1 (stereo not shown) [Compound 44]
27	<24	CCOc1c(C(=O)O)cnn1-c1cccc(-c2cccc(C)c2OCc2ccc3c(c2)CCN(C2CCCOC2)C3)n1 (stereo not shown) [Compound 36]
110	<24	CCOc1c(C(=O)O)cnn1-c1cccc(-c2cccc(Cl)c2OCc2ccc3c(c2)CCN(C2CCOC2)C3)n1 (stereo not shown) [Compound 55]
38	<24	CCOc1c(C(=O)O)cnn1-c1cccc(-c2cccc(C)c2OCc2ccc3c(c2)CCN(CC2CCOC2)C3)n1 (stereo not shown) [Compound 68]
24	<24	CCOc1c(C(=O)O)cnn1-c1cccc(-c2cccc(Cl)c2OCc2ccc3c(c2)CCN(C2CCC(F)(F)CC2)C3)n1 [Compound 57]
29	<24	COc1c(C(=O)O)cnn1-c1cccc(-c2cccc(C(F)(F)F)c2OCc2ccc3c(c2)CCN(C2CCOCC2)C3)n1 [Compound 83]
11	<24	Cc1cccc(-c2cccc(-n3ncc(C(=O)O)c3OC(C)C)n2)c1OCc1ccc2c(c1)CCN(CC1CC(F)(F)C1)C2 [Compound 4, 1-(6-{2-[2-(3,3-difluoro-cyclobutylmethyl)-1,2,3,4-tetrahydro-isoquinolin-6-ylmethoxy]-3-methyl-phenyl}-pyridin-2-yl)-5-isopropoxy-1H-pyrazole-4-carboxylic acid]
320	<24	CCOc1c(C(=O)O)cnn1-c1cccc(-c2cccc(C)c2OCc2ccc3c(c2)CCN(C2CC(C)(C)OC(C)(C)C2)C3)n1 [Compound 67]
